Results as given in patent publication US20110288086A1, “POLYCYCLIC QUINAZOLINES, PREPARATION THEREOF, AND USE THEREOF” (priority 2010, published 2011).
Where a name gives a salt, the structure may show the parent alone.

How the values were obtained:
aurora kinase B = target: T1, aurora kinase B (Homo sapiens, UniProt Q96GD4); assay: Aurora kinase B inhibition in vitro (Invitrogen aurora kinase screening kit PV3174); type: biochemical
T1 construct: purchased Invitrogen PV3174

[1] = system: K562 human chronicity marrow leukemic cells; assay: Tumor cell inhibition ratio, CCK-8 kit, K562; conditions: K562, read-out: Antiproliferative effect (inhibition ratio) K562
Description: (§1) The inhibitory activities of the compounds on tumor cells in vitro

[2] = system: A549 human lung cancer cells; assay: Tumor cell inhibition ratio, CCK-8 kit, A549; conditions: A549, read-out: Antiproliferative effect (inhibition ratio) A549
Description: as §1

[3] = system: PC-3 human carcinoma of prostate; assay: Tumor cell inhibition ratio, CCK-8 kit, PC-3; conditions: read-out: Antiproliferative effect (inhibition ratio) PC-3
Description: as §1

[4] = system: Hut78 T-Lymphocytic Leukemia cells; assay: Tumor cell inhibition ratio, CCK-8 kit, Hut78; conditions: Homo sapiens, HuT78, read-out: Antiproliferative effect (inhibition ratio) Hut-78
Description: as §1

[5] = system: Hep3B2.1-7 human hepatoma carcinoma cells; assay: Tumor cell inhibition ratio, CCK-8 kit, Hep3B; conditions: read-out: Antiproliferative effect (inhibition ratio) Hep3B
Description: as §1

[6] = system: PANC-1 human pancreatic cancer cells; assay: Tumor cell inhibition ratio, CCK-8 kit, PANC-1; conditions: PANC-1, read-out: Antiproliferative effect (inhibition ratio) PANC-1
Description: as §1

[7] = system: Colo320 human rectal cancer cells; assay: Tumor cell inhibition ratio, CCK-8 kit, Colo320; conditions: COLO 320, read-out: Antiproliferative effect (inhibition ratio) Colo320
Description: as §1

[8] = system: Jurkat E6-1 human T-cell lymphoma; assay: Tumor cell inhibition ratio, CCK-8 kit, Jurkat E6-1; conditions: Jurkat E6.1, read-out: Antiproliferative effect (inhibition ratio) E6-1
Description: as §1

[9] = system: MDA-MB-435s human breast carcinoma cells; assay: Tumor cell inhibition ratio, CCK-8 kit, MDA-MB-435s; conditions: read-out: Antiproliferative effect (inhibition ratio) 435s
Description: as §1

EGFR tyrosine kinase = EGFR tyrosine kinase (Homo sapiens, UniProt P00533); assay: EGFR tyrosine kinase inhibition in vitro (Invitrogen EGFR inhibitor screening kit PV3193)
Sequence of EGFR tyrosine kinase (P00533 25-1210): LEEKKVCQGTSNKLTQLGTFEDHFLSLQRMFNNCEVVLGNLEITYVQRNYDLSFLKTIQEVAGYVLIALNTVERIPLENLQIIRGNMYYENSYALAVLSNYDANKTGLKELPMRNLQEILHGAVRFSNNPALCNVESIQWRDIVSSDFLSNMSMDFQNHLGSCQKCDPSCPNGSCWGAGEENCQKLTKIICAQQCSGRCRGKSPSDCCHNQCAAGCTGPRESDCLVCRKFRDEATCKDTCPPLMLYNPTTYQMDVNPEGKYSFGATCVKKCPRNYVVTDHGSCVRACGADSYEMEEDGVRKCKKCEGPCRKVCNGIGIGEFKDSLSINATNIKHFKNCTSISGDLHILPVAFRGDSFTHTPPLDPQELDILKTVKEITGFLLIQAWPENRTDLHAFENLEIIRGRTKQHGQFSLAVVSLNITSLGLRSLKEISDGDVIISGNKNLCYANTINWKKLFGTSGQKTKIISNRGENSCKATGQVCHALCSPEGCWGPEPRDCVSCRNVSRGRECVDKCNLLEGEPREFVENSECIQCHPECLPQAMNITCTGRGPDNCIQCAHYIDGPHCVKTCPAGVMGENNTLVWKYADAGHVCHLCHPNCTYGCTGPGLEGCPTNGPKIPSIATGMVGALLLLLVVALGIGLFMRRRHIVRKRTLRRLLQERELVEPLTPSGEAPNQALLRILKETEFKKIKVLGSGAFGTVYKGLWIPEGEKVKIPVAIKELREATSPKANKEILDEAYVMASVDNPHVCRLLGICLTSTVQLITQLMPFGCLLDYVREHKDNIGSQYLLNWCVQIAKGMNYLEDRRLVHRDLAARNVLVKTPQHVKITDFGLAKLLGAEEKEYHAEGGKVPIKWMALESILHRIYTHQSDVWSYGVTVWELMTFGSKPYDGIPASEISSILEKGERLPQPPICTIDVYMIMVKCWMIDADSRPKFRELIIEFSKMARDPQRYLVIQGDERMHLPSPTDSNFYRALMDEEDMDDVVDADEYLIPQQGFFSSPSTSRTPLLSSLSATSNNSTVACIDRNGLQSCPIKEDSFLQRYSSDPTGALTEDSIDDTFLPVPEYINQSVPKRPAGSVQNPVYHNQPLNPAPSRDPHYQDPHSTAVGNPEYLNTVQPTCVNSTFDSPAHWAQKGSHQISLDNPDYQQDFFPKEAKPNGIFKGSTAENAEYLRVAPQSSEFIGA
Description: The inhibitory activities of EGFR tyrosine kinase in vitro
Erlotinib hydrochloride was used as a positive control drug.

T1 sequence (Q96GD4 whole entry): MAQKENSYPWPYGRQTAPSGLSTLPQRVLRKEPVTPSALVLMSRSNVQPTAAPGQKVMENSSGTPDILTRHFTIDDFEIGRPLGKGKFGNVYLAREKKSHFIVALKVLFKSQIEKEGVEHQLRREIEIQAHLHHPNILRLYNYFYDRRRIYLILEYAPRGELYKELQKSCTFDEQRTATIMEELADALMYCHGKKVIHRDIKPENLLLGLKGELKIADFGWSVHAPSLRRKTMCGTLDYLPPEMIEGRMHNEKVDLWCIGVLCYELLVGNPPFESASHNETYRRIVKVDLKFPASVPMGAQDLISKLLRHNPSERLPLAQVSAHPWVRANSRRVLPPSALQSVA

The inhibition ratio of the compound on Aurora B(%) (aurora kinase B; 40 μM) | The inhibition ratio of the compound on Aurora B(%) (aurora kinase B; 200 μM) | Compound | inhibition at 10 µM [1] | inhibition at 100 µM [1] | inhibition at 10 µM [2] | inhibition at 100 µM [2] | inhibition at 10 µM [3] | inhibition at 100 µM [3] | inhibition at 10 µM [4] | inhibition at 100 µM [4] | inhibition at 10 µM [5] | inhibition at 100 µM [5] | inhibition at 10 µM [6] | inhibition at 100 µM [6] | inhibition at 10 µM [7] | inhibition at 100 µM [7] | inhibition at 10 µM [8] | inhibition at 100 µM [8] | inhibition at 10 µM [9] | inhibition at 100 µM [9] | also measured
47.6% | 88.6% | COCCOc1cc2c(cc1OCCOC)C1=Nc3cccc(Cl)c3CN1C=N2.Cl [Compound V-1, 9-chloro-2,3-bis(2-methoxyethoxy)-8H-quinazolino[4,3-b]quinazoline hydrochloride monohydrate] | 40.7% | 87% | 40.5% | 81.4% | 51.6% | 62.4% | 16.1% | 64.5% | 50.4% | 89.3% | 35.7% | 78.1% | 55.1% | 81% | 55% | 81.7% | 60.9% | 91.2% | The inhibition ratio of the compound on EGFR(%) (EGFR tyrosine kinase; 40 μM): 57.6%; The inhibition ratio of the compound on EGFR(%) (EGFR tyrosine kinase; 200 μM): 91.5%
39.5% | 83.6% | COCCOc1cc2c(cc1OCCOC)C1=Nc3cccc(F)c3CN1C=N2 [Compound V-3, 9-fluoro-2,3-bis(2-methoxyethoxy)-8H-quinazolino[4,3-b]quinazoline mesylate] | 43.1% | 88.8% | 44.6% | 76.2% | 34% | 87% | 44.1% | 84.1% | 42.3% | 80.7% | 30.9% | 75.4% | 34.8% | 79% | 42% | 78% | 3.38% | 84.1% | The inhibition ratio of the compound on EGFR(%) (EGFR tyrosine kinase; 40 μM): 49.5%; The inhibition ratio of the compound on EGFR(%) (EGFR tyrosine kinase; 200 μM): 81.6%
38.7% | 91.5% | C#Cc1cccc2c1CN1C=Nc3cc(OCCOC)c(OCCOC)cc3C1=N2.Cl [Compound V-4, 9-ethynyl-2,3-bis(2-methoxyethoxy)-8H-quinazolino[4,3-b]quinazoline hydrochloride trihydrate] | 31.4% | 87.6% | 48.6% | 78.7% | 22.2% | 62.7% | 44.1% | 85% | 33.5% | 79% | 39.7% | 85.9% | 48.9% | 83.4% | 6.85% | 19.8% | 31.3% | 92.6% | The inhibition ratio of the compound on EGFR(%) (EGFR tyrosine kinase; 40 μM): 48.7%; The inhibition ratio of the compound on EGFR(%) (EGFR tyrosine kinase; 200 μM): 93.2%
35.1% | 74.6% | COCCOc1cc2c(cc1OCCOC)C1=Nc3cccc([N+](=O)[O-])c3CN1C=N2 [Compound V-5, 9-nitro-2,3-bis(2-methoxyethoxy)-8H-quinazolino[4,3-b]quinazoline] | 23.6% | 78.3% | 59.8% | 92.5% | 32.5% | 63.6% | 43.8% | 63.5% | 22.3% | 54.4% | 17.1% | 80.3% | 51.7% | 84.9% | 34.8% | 78.9% | 48.9% | 87.2% | The inhibition ratio of the compound on EGFR(%) (EGFR tyrosine kinase; 40 μM): 25.2%; The inhibition ratio of the compound on EGFR(%) (EGFR tyrosine kinase; 200 μM): 74.6%
23.2% | 91.7% | COCCOc1cc2c(cc1OCCOC)C1=Nc3cccc(C#N)c3CN1C=N2 [Compound V-7, 9-cyano-2,3-bis(2-methoxyethoxy)-8H-quinazolino[4,3-b]quinazoline] | 24.3% | 61.7% | 27.7% | 83.6% | 15.9% | 90.3% | 32.1% | 62.4% | 40.4% | 89.5% | 40.7% | 86.6% | 42.1% | 81.4% | 34.6% | 75.4% | 38% | 81.4% | The inhibition ratio of the compound on EGFR(%) (EGFR tyrosine kinase; 40 μM): 36.2%; The inhibition ratio of the compound on EGFR(%) (EGFR tyrosine kinase; 200 μM): 80.5%
17.6% | 60.5% | COCCOc1cc2c(cc1OCCOC)C1=Nc3cccc(C(F)(F)F)c3CN1C=N2 [Compound V-9, 9-trifluoromethyl-2,3-bis(2-methoxyethoxy)-8H-quinazolino[4,3-b]quinazoline] | 34.6% | 79.9% | 33.7% | 87.5% | 16.4% | 78% | 19.2% | 70.5% | 40.1% | 82.8% | 11.7% | 55.6% | 46.3% | 73.3% | 20.4% | 65.4% | 54.9% | 80.7% | The inhibition ratio of the compound on EGFR(%) (EGFR tyrosine kinase; 40 μM): 13.0%; The inhibition ratio of the compound on EGFR(%) (EGFR tyrosine kinase; 200 μM): 60.3%
20.8% | 73.6% | COCCOc1cc2c(cc1OCCOC)C1=Nc3cccc(OC)c3CN1C=N2 [Compound V-10, 9-methoxy-2,3-bis(2-methoxyethoxy)-8H-quinazolino[4,3-b]quinazoline] | 47.5% | 85% | 28.8% | 82.8% | 9.39% | 91.7% | 41.1% | 72.2% | 31.9% | 72.2% | 36.5% | 96.9% | 10.8% | 72.8% | 51.8% | 84.2% | 29.6% | 65.1% | The inhibition ratio of the compound on EGFR(%) (EGFR tyrosine kinase; 40 μM): 30.8%; The inhibition ratio of the compound on EGFR(%) (EGFR tyrosine kinase; 200 μM): 78.5%
23.2% | 76.9% | COCCOc1cc2c(cc1OCCOC)C1=Nc3ccc(OCc4cccc(F)c4)c(Cl)c3CN1C=N2 [Compound V-14, 9-chloro-10-(3-fluoro-benzyloxy)-2,3-bis(2-methoxyethoxy)-8H-quinazolino[4,3-b]quinazoline] | 36.6% | 100% | 31.1% | 97.8% | 38.5% | 97.1% | 21.3% | 98.7% | 45.1% | 100% | 38.3% | 99.9% | 17.6% | 88% | 26.9% | 97.7% | 46.6% | 94.8% | The inhibition ratio of the compound on EGFR(%) (EGFR tyrosine kinase; 40 μM): 45.2%; The inhibition ratio of the compound on EGFR(%) (EGFR tyrosine kinase; 200 μM): 87.9%
21.5% | 78.1% | COCCOc1cc2c(cc1OCCOC)C1=Nc3cc(F)ccc3CN1C=N2 [Compound V-16, 11-fluoro-2,3-bis(2-methoxyethoxy)-8H-quinazolino[4,3-b]quinazoline] | 53.6% | 93.8% | 50.7% | 70.2% | 53.5% | 98.9% | 44.3% | 99.6% | 30.3% | 74.6% | 22.4% | 99.9% | 52.7% | 99.4% | 56.6% | 97.3% | 48.9% | 66.2% | The inhibition ratio of the compound on EGFR(%) (EGFR tyrosine kinase; 40 μM): 21.7%; The inhibition ratio of the compound on EGFR(%) (EGFR tyrosine kinase; 200 μM): 80.1%
